Here are results for 4 compounds from ChEMBL document CHEMBL1201862, “PubChem BioAssay data set” (2004).

Among the test systems are Hs-578T; EKVX; SNB-19; MDA-MB-231; SK-MEL-2; SF-295; NCI-H226; HL-60; UO-31; SF-539; RPMI-8226; U-251; SNB-75; M19-MEL; HOP-92; NCI-H23; SK-MEL-5; SK-MEL-28; HT-29; KM12.
What all share (experiment): DTP human tumour cell line panel, 48 h

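48-hour exposure; five concentrations; linearly interpolated endpoints. GI50 is the concentration that inhibits growth by half.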 The source made the active and inactive calls. Rule as the data show it: active = GI50 up to about 1.1 µM and inactive = higher.

Turning to `CC[C@@]1(OC(=O)C(N)CCC(=O)O)C(=O)OCc2c1cc1n(c2=O)Cc2cc3ccccc3nc2-1` (stereo not given in full), the GI50 is 7.05 µM (inactive) in the experiment with Hs-578T; 1.44 µM (inactive) in the experiment on EKVX; 0.0541 µM (active) with SNB-19; 1.63 µM (inactive) with MDA-MB-231; 1.12 µM (active) in the experiment on SK-MEL-2; 0.0213 µM (active) in the experiment with SF-295. Further, the GI50 in the experiment with NCI-H226 is 0.0502 µM (active); in the experiment on HL-60, 0.0208 µM (active); with UO-31, 0.0493 µM (active); with SF-539, 0.018 µM (active); in the experiment with RPMI-8226 it was 0.148 µM (active); in the experiment with U-251, 0.0202 µM (active). The GI50 with SNB-75 was 0.0526 µM (active); in the experiment with M19-MEL it was 0.189 µM (active); with HOP-92, 0.615 µM (active); in the experiment with NCI-H23, 0.0345 µM (active); with SK-MEL-5, 0.0736 µM (active); with SK-MEL-28, 1.35 µM (inactive). Further, in the experiment with HT-29, the GI50 was 0.261 µM (active).
Consider `O=C1C(c2ccccc2)=C(O)c2cccc3cccc1c23`, for which the GI50 in the experiment with EKVX was > 100 µM (inactive); in the experiment on SNB-19, > 100 µM (inactive); in the experiment with SK-MEL-2 it was > 100 µM (inactive); in the experiment on SF-295, > 100 µM (inactive); in the experiment with NCI-H226, 88.9 µM (inactive); with KM12, > 100 µM (inactive). Further, the GI50 in the experiment on HL-60 is > 100 µM (inactive); with UO-31 it was > 100 µM (inactive); in the experiment with SF-539, > 100 µM (inactive); with RPMI-8226 it was > 100 µM (inactive); in the experiment on U-251 it was > 100 µM (inactive); with SNB-75, 40.3 µM (inactive). The GI50 with M19-MEL was > 100 µM (inactive); in the experiment on HOP-92, 29 µM (inactive); with NCI-H23 it was > 100 µM (inactive); in the experiment with SK-MEL-5, > 100 µM (inactive); with SK-MEL-28 it was > 100 µM (inactive); in the experiment with HT-29, > 100 µM (inactive).
Take `O=C(O)Cc1ccccc1CCc1ccccc1Cl`: the GI50 is 96.4 µM (inactive) in the experiment with EKVX; > 100 µM (inactive) with SNB-19; 30.8 µM (inactive) with SK-MEL-2; > 100 µM (inactive) with SF-295; 68.1 µM (inactive) in the experiment on NCI-H226; > 100 µM (inactive) with KM12. The GI50 in the experiment with HL-60 is > 100 µM (inactive); with UO-31, > 100 µM (inactive); in the experiment on SF-539 it was > 100 µM (inactive); in the experiment on RPMI-8226, > 100 µM (inactive); in the experiment with U-251, > 100 µM (inactive); in the experiment with SNB-75 it was 93.8 µM (inactive). For the same compound, the GI50 in the experiment with M19-MEL is 95.5 µM (inactive); with HOP-92, > 100 µM (inactive); with NCI-H23, > 100 µM (inactive); with SK-MEL-5, > 100 µM (inactive); in the experiment on SK-MEL-28, > 100 µM (inactive); with HT-29, > 100 µM (inactive).
With `Cc1cc(N(CCC#N)CCC#N)ccc1/C=C(\NC(=O)/C=C/c1ccccc1)C(=O)NN`, the GI50 with Hs-578T is 31.3 µM (inactive); with EKVX, > 73.3 µM (inactive); with SNB-19, > 40.9 µM (inactive); in the experiment with MDA-MB-231, 32.4 µM (inactive); in the experiment on SK-MEL-2, > 61.7 µM (inactive); in the experiment with SF-295, 40 µM (inactive). Moreover, the GI50 in the experiment with NCI-H226 is > 55.6 µM (inactive); with KM12, > 100 µM (inactive); in the experiment on HL-60, > 100 µM (inactive); with UO-31, > 100 µM (inactive); in the experiment on SF-539 it was 39.1 µM (inactive); with RPMI-8226 it was > 100 µM (inactive). Moreover, the GI50 with U-251 is 26 µM (inactive); with SNB-75 it was 24.7 µM (inactive); in the experiment on M19-MEL it was > 100 µM (inactive); in the experiment with HOP-92 it was 20.3 µM (inactive); in the experiment with NCI-H23, > 65.8 µM (inactive); in the experiment on SK-MEL-5, > 79.6 µM (inactive). The GI50 in the experiment on SK-MEL-28 and in the experiment on HT-29 was > 100 µM (inactive) each time.
